Drawing on ChEMBL document CHEMBL1131891, “Antiplatelet actions of aporphinoids from Formosan plants” (Bioorg Med Chem Lett, 1999), this text covers Aggregation and IC50 for 15 compounds.

Holding throughout (type): functional
For assay [1], the species on record is Oryctolagus cuniculus. Kind of assay: Effect on platelet aggregation induced by adenosine 5'-diphosphate (ADP) in washed rabbit platelet.
The species named for assay [2] is Oryctolagus cuniculus. Kind of assay: Effect on platelet aggregation induced by arachidonic acid(AA) in washed rabbit platelet.
The species entered for assay [3] is Oryctolagus cuniculus. The assay is described as follows: Effect on platelet aggregation induced by collagen in washed rabbit platelet.
Assay [4] is filed under the species Oryctolagus cuniculus. The assay is described as follows: Effect on platelet aggregation induced by platelet activating factor(PAF) in washed rabbit platelet.
For assay [5], the species on record is Oryctolagus cuniculus. The assay is described as follows: Inhibitory activity against platelet aggregation induced by arachidonic acid(AA) in washed rabbit platelet.
For assay [6], the species on record is Oryctolagus cuniculus. The assay is described as follows: Inhibitory activity against platelet aggregation induced by platelet activating factor(PAF) in washed rabbit platelet.
The species entered for assay [7] is Oryctolagus cuniculus. The assay is described as follows: Inhibitory activity against platelet aggregation induced by collagen in washed rabbit platelet.

Consider `COc1cc2c(cc1OC)C(O)C1c3c(c(OC)c(OC)c(OC)c3-2)CCN1C` (configuration not stated), for which the Aggregation in the assay filed under Oryctolagus cuniculus [1] turned out to be 34.5%; in the assay filed under Oryctolagus cuniculus [2], 0%; in the assay listed under Oryctolagus cuniculus [3], 0%; in the assay listed under Oryctolagus cuniculus [4] it was 0%. In addition, the values for the IC50 in the assay filed under Oryctolagus cuniculus [5] (read-out: IC50) and in the assay filed under Oryctolagus cuniculus [6] (read-out: IC50) were 70.4 µM and 11.8 µM, respectively.

With `COc1cc2c3c(c1O)-c1ccccc1CC3N(C)CC2` (configuration not stated), the Aggregation was 86.3% in the assay filed under Oryctolagus cuniculus [1], 0% in the assay filed under Oryctolagus cuniculus [2], 0% in the assay listed under Oryctolagus cuniculus [3] and 51.7% in the assay listed under Oryctolagus cuniculus [4]. In addition, the 50% inhibitory concentration (IC50) in the assay filed under Oryctolagus cuniculus [5] (read-out: IC50) came out at 171 µM.

As to `COc1cc2c(cc1OC)C(O)C1c3c(cc(OC)c(OC)c3-2)CCN1C` (configuration not stated), the Aggregation in the assay filed under Oryctolagus cuniculus [1] worked out at 78.3%; in the assay filed under Oryctolagus cuniculus [2] it was 21.8%; in the assay filed under Oryctolagus cuniculus [3] it was 12.7%; in the assay listed under Oryctolagus cuniculus [4], 0%. Besides, the IC50 in the assay filed under Oryctolagus cuniculus [6] (read-out: IC50) was 52.6 µM.

As to `COc1cc2c(cc1O)C[C@H]1c3c(cc(OC)c(OC)c3-2)CC[N+]1(C)C.[I-]`, the Aggregation in the assay listed under Oryctolagus cuniculus [1] was found to be 87.6%; in the assay filed under Oryctolagus cuniculus [2] it was 88.1%; in the assay filed under Oryctolagus cuniculus [3] it was 81.3%; in the assay listed under Oryctolagus cuniculus [4] it was 82.7%.

Regarding `COc1ccc2c(c1OC)-c1c(OC)c(O)cc3c1[C@H](C2)N(C)CC3`, the Aggregation in the assay listed under Oryctolagus cuniculus [1] came to 89.4%; in the assay filed under Oryctolagus cuniculus [2], 86.5%; in the assay listed under Oryctolagus cuniculus [3], 83.5%; in the assay listed under Oryctolagus cuniculus [4], 78.6%.

For the compound `COc1cc2c(cc1OC)-c1c3c(cc4c1[C@H](C2)N(OC)CC4)OCO3`, the Aggregation in the assay filed under Oryctolagus cuniculus [1] is reported as 86.8%; in the assay filed under Oryctolagus cuniculus [2], 80.9%; in the assay listed under Oryctolagus cuniculus [3], 87.3%; in the assay listed under Oryctolagus cuniculus [4] it was 92.2%.

As for `CC1=NN(c2ccc([N+](=O)[O-])cc2)C(=O)C1[N+](=O)[O-].COc1cc2c(cc1O)C[C@@H]1NCCc3cc(O)c(OC)c-2c31`, the Aggregation in the assay filed under Oryctolagus cuniculus [1] came to 92.1%; in the assay listed under Oryctolagus cuniculus [2], 0%; in the assay listed under Oryctolagus cuniculus [3] it was 4.6%; in the assay filed under Oryctolagus cuniculus [4], 79.3%. The IC50 in the assay listed under Oryctolagus cuniculus [5] (read-out: IC50) came to 149 µM.

Take `COc1cc2c3c(c1OC)-c1ccccc1C[C@@H]3NCC2`: the Aggregation is on record as 77.1% in the assay filed under Oryctolagus cuniculus [1], 0% in the assay listed under Oryctolagus cuniculus [2], 0% in the assay listed under Oryctolagus cuniculus [3] and 30.6% in the assay listed under Oryctolagus cuniculus [4]. Moreover, the IC50 in the assay listed under Oryctolagus cuniculus [5] (read-out: IC50) worked out at 211 µM.

As for `COc1c(O)ccc2c1-c1c(OC)c(O)cc3c1[C@H](C2)[N+](C)(C)CC3.[I-]`, the Aggregation in the assay listed under Oryctolagus cuniculus [1] worked out at 90.7%; in the assay listed under Oryctolagus cuniculus [2] it was 83.7%; in the assay filed under Oryctolagus cuniculus [3] it was 89.8%; in the assay filed under Oryctolagus cuniculus [4], 85.5%.

With `COc1ccc2c(c1OC)-c1c3c(cc4c1[C@H](C2)[N+](C)(C)CC4)OCO3.[I-]`, the Aggregation in the assay filed under Oryctolagus cuniculus [1] is 88.6%; in the assay filed under Oryctolagus cuniculus [2], 89%; in the assay listed under Oryctolagus cuniculus [3] it was 77.6%; in the assay listed under Oryctolagus cuniculus [4] it was 83.9%.

As to `Br.COc1c(O)ccc2c1-c1c3c(cc4c1[C@H](C2)NCC4)OCO3`, the Aggregation in the assay filed under Oryctolagus cuniculus [1] is 91.8%; in the assay listed under Oryctolagus cuniculus [2], 60%; in the assay listed under Oryctolagus cuniculus [3], 0%; in the assay listed under Oryctolagus cuniculus [4], 91.6%.

For `COc1c(O)ccc2c1-c1c(OC)c(O)cc3c1[C@H](C2)NCC3.Cl`, the Aggregation in the assay filed under Oryctolagus cuniculus [1] is recorded as 10.5%; in the assay filed under Oryctolagus cuniculus [2] it was 0%; in the assay filed under Oryctolagus cuniculus [3] it was 0%; in the assay listed under Oryctolagus cuniculus [4], 4%. In the assay filed under Oryctolagus cuniculus [5] (read-out: IC50), the IC50 was 168 µM.

Take `CC(=O)Oc1ccccc1C(=O)O` [ASPIRIN]: the Aggregation in the assay filed under Oryctolagus cuniculus [1] is 77.9%; in the assay listed under Oryctolagus cuniculus [2] it was 0%; in the assay filed under Oryctolagus cuniculus [3], 87.4%; in the assay listed under Oryctolagus cuniculus [4], 90.4%. In addition, the IC50 in the assay listed under Oryctolagus cuniculus [5] was 164 µM; in the assay listed under Oryctolagus cuniculus [7], more than 1000 µM; in the assay listed under Oryctolagus cuniculus [6] it was more than 1000 µM.

On to `COc1ccc2c(c1OC)-c1c(OC)c(OC)cc3c1[C@H](C2)[N+](C)(C)CC3.[I-]` [ISOCORYDINE METHIODIDE], for which the Aggregation was found to be 90.2% in the assay filed under Oryctolagus cuniculus [1], 71% in the assay listed under Oryctolagus cuniculus [2], 87.9% in the assay listed under Oryctolagus cuniculus [3] and 85.6% in the assay filed under Oryctolagus cuniculus [4].

Turning to `CN1CCc2cc3c(c4c2[C@H]1Cc1ccccc1-4)OCO3.Cl` [REMERINE HYDROCHLORIDE], the Aggregation stood at 67.2% in the assay listed under Oryctolagus cuniculus [1], 0% in the assay filed under Oryctolagus cuniculus [2], 0% in the assay listed under Oryctolagus cuniculus [3] and 27.8% in the assay filed under Oryctolagus cuniculus [4]. Further, the values for the IC50 in the assay listed under Oryctolagus cuniculus [5] (read-out: IC50) and in the assay listed under Oryctolagus cuniculus [7] (read-out: IC50) were 195 µM and 88.2 µM, respectively.

The term IC50 denotes the midpoint of a concentration-inhibition curve.
